According to ChEMBL document CHEMBL1201862, “PubChem BioAssay data set” (2004):
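Values below derive from 48-hour exposures of cells grown in 96-well plates, with endpoints linearly interpolated between the two concentrations bracketing the appropriate inhibition level. At the GI50, growth is halved.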 Active and inactive are the calls of the source. No stated cut-off is given here; in the data, active = GI50 up to about 1.1 µM and inactive = higher.

What was measured:
Assay in all cases: NCI anticancer screen, dose series, 48 h
MOLT-4 = test system: MOLT-4
M14 = test system: M14
OVCAR-8 = test system: OVCAR-8
SNB-19 = test system: SNB-19
SF-539 = test system: SF-539
SW-620 = test system: SW-620
HCC 2998 = test system: HCC 2998
SF-295 = test system: SF-295
OVCAR-3 = test system: OVCAR-3
SNB-75 = test system: SNB-75
786-0 = test system: 786-0
ACHN = test system: ACHN
LOX IMVI = test system: LOX IMVI
U-251 = test system: U-251
SK-MEL-2 = test system: SK-MEL-2
K562 = test system: K562
DU-145 = test system: DU-145
IGROV-1 = test system: IGROV-1
MCF7 = test system: MCF7
MDA-MB-231 = test system: MDA-MB-231

Row | Compound | GI50 (MOLT-4) | GI50 (M14) | GI50 (OVCAR-8) | GI50 (SNB-19) | GI50 (SF-539) | GI50 (SW-620) | GI50 (HCC 2998) | GI50 (SF-295) | GI50 (OVCAR-3) | GI50 (SNB-75) | GI50 (786-0) | GI50 (ACHN) | GI50 (LOX IMVI) | GI50 (U-251) | GI50 (SK-MEL-2) | GI50 (K562) | GI50 (DU-145) | GI50 (IGROV-1) | GI50 (MCF7) | GI50 (MDA-MB-231)
1 | OC1(c2ccccc2)CCN(Cc2c[nH]c3ccccc23)CC1 | 39.2 µM (inactive) | 17.5 µM (inactive) | > 100 µM (inactive) | > 100 µM (inactive) | 79.3 µM (inactive) | > 100 µM (inactive) | 17.8 µM (inactive) | 92.7 µM (inactive) | > 100 µM (inactive) | > 100 µM (inactive) | 44 µM (inactive) | > 100 µM (inactive) | 76.4 µM (inactive) | 64.4 µM (inactive) | 18 µM (inactive) | 33.2 µM (inactive) | > 100 µM (inactive) | > 100 µM (inactive) | 50.5 µM (inactive) | 81.3 µM (inactive)
2 | CCN(CC)C(=S)N/N=C(/C)c1cccc(/C(C)=N\NC(=S)N(CC)CC)n1 | 1.66 µM (inactive) | 1.38 µM (inactive) | 1.44 µM (inactive) | 4.39 µM (inactive) | 1.37 µM (inactive) | 0.951 µM (active) | 3.9 µM (inactive) | 1.66 µM (inactive) | 1.35 µM (inactive) | 3.21 µM (inactive) | 1.45 µM (inactive) | 0.678 µM (active) | 1.81 µM (inactive) | 2.34 µM (inactive) | 4.68 µM (inactive) | 2.67 µM (inactive) | 0.414 µM (active) | 1.91 µM (inactive) | 2.04 µM (inactive) | 1.76 µM (inactive)
3 | N#Cc1nc(C#N)c(N)[nH]1 | > 100 µM (inactive) | > 100 µM (inactive) | > 100 µM (inactive) | > 100 µM (inactive) | > 100 µM (inactive) | > 100 µM (inactive) | > 100 µM (inactive) | > 100 µM (inactive) | > 100 µM (inactive) | > 100 µM (inactive) | > 100 µM (inactive) | > 100 µM (inactive) | > 100 µM (inactive) | > 100 µM (inactive) | > 100 µM (inactive) | > 100 µM (inactive) | > 100 µM (inactive) | > 100 µM (inactive) | > 100 µM (inactive) | > 100 µM (inactive)
4 | COc1cc(/C=N/N=C2NCCCCN2)ccc1O | > 100 µM (inactive) | > 100 µM (inactive) | > 100 µM (inactive) | > 100 µM (inactive) | > 100 µM (inactive) | > 100 µM (inactive) | > 100 µM (inactive) | 61.7 µM (inactive) | > 100 µM (inactive) | > 100 µM (inactive) | > 100 µM (inactive) | > 100 µM (inactive) | > 100 µM (inactive) | > 100 µM (inactive) | > 100 µM (inactive) | 58.7 µM (inactive) | > 100 µM (inactive) | > 100 µM (inactive) | 50.2 µM (inactive) | > 100 µM (inactive)
5 | COC(=O)C1=C(O)C(C(=O)OC)[C@@]2(O)[C@@H](C(=O)OC)C(c3ccc(OC(=O)/C=C/c4ccccc4)cc3)C[C@@H]1[C@@H]2C(=O)OC (stereo not given in full) | 2.61 µM (inactive) | 6.84 µM (inactive) | 8.69 µM (inactive) | 20.6 µM (inactive) | 3.43 µM (inactive) | 6.01 µM (inactive) | 4.89 µM (inactive) | 23.9 µM (inactive) | 9.77 µM (inactive) | 29.6 µM (inactive) | 10 µM (inactive) | 18.9 µM (inactive) | 2.31 µM (inactive) | 6.15 µM (inactive) | 4.32 µM (inactive) | 5.79 µM (inactive) | 11 µM (inactive) | 8.04 µM (inactive) | 2.99 µM (inactive) | 14.7 µM (inactive)
6 | CNc1ccc2c(c1)Cc1ccccc1-2 | 17 µM (inactive) | 34.1 µM (inactive) | 25.4 µM (inactive) | 13.6 µM (inactive) | 32.4 µM (inactive) | 53.6 µM (inactive) | 30.6 µM (inactive) | 47.2 µM (inactive) | 26.8 µM (inactive) | 52.6 µM (inactive) | 53 µM (inactive) | 35.2 µM (inactive) | 50.9 µM (inactive) | 34.4 µM (inactive) | 35.4 µM (inactive) | 31.1 µM (inactive) | 31.9 µM (inactive) | 34.5 µM (inactive) | 44.6 µM (inactive) | 55.8 µM (inactive)
7 | CN(C)CCn1c(=O)c2ccc(NCCNCCO)c3c(=O)c4cc(O)ccc4n(c1=O)c23 | 0.229 µM (active) | 2.69 µM (inactive) | 1.12 µM (inactive) | 1.04 µM (active) | 0.367 µM (active) | 0.532 µM (active) | 0.661 µM (active) | 1.6 µM (inactive) | 2.55 µM (inactive) | 1.2 µM (inactive) | 0.617 µM (active) | 0.571 µM (active) | 0.91 µM (active) | 0.931 µM (active) | 1.9 µM (inactive) | 0.991 µM (active) | 0.875 µM (active) | 1.05 µM (active) | 0.465 µM (active) | 0.586 µM (active)
